Measured values as given in patent publication US20250140406A1, “CLASSIFYING TUMORS AND PREDICTING RESPONSIVENESS” (Oncocyte Corporation, priority 2022, published 2025).

Tests used:
[1] = system: NSCLC cell lines (xenograft models); conditions: of the 10 NSCLC cell lines, GSE109302; cited from earlier work
[2] = system: Representative Cell Lines of TNBC tumor subtypes; conditions: TNBC subtypes from Lehmann et al.; cited from earlier work
[3] = system: cancer cell lines classified IM, MSL, M; assay: Cancer Therapeutics Response Portal (CTRP) small-molecule sensitivity correlated with IM, MSL and M subtype; type: cell-based; conditions: CTRP and PRISM screens; IM class by 101 gene signature
Description: Compound correlations where the correlation was negative, indicating sensitivity to the compound, and with a q value less than 0.05 were assessed.

[4] = system: cancer cell lines classified IM, MSL, M; assay: PRISM screen compound sensitivity correlated with IM, MSL and M subtype of cell lines (101 gene signature); type: cell-based; conditions: test cell set (188 cell lines)
[5] = system: cancer cell lines, DetermaIO classes; assay: Association of PRISM compound sensitivity with DetermaIO (DTIO) cell line classes; type: cell-based
cancer cell lines = assay: Correlation of gene expression with PRISM compound sensitivity across cell lines (gene:compound correlate pairs); type: cell-based; parameters: key: Pearson correlation of gene expression with compound sensitivity; conditions: for compound gene test corr: test cell lines; for compound gene train corr: training cell lines
Description: This list of genes (based upon gene expression and gene dependency) was analyzed by Pearson correlation with the compound sensitivity data across the training cell lines. Correlation values, p values, q values and local false discovery rates were calculated. This analysis was repeated using the same set of compounds and genes on the test set of cell lines.
A negative correlation means that the importance of the expression of that gene to cell health was linked to increased compound sensitivity. • compound gene dep train pvalue: Measure of significance for this association. • compound gene dep test corr: Correlation of gene dependency with compound sensitivity in the test data set. • TNBCType train: Classification of association of the compound sensitivity with the IM, MSL and M cell line classes in the training data set. • DTIO Corr train: Association of the compound sensitivity with the DetermaIO cell line classes in the training data set. • TNBCType test: Classification of the association of the compound sensitivity with the IM, MSL and M cell line classes in the test data set. • DTIO Corr test: Association of the compound sensitivity with the DetermaIO cell line classes in the test data set.

COc1cc(C(=O)NC2CCN(C)CC2)c(F)cc1Nc1ncc(C(F)(F)F)c(Oc2cccc3c2C(=O)N(C)C3)n1 [BI 853520]
Number of NSCLC cell lines resistant to the drug [1]: five
Number of NSCLC cell lines sensitive to the drug [1]: five

CC(O)(CS(=O)(=O)c1ccc(F)cc1)C(=O)Nc1ccc(C#N)c(C(F)(F)F)c1 (centres unmarked) [Bicalutimide]
Tumor subtype whose representative cell lines respond to the treatment [2]: LAR

N.N.[Cl][Pt][Cl] [Cisplatin]
Tumor subtype whose representative cell lines respond to the treatment [2]: BL1 and BL2

Cc1nc(Nc2ncc(C(=O)Nc3c(C)cccc3Cl)s2)cc(N2CCN(CCO)CC2)n1 [Dasantinib]
Tumor subtype whose representative cell lines respond to the treatment [2]: M and MSL

Cn1c(=O)n(-c2ccc(C(C)(C)C#N)cc2)c2c3cc(-c4cnc5ccccc5c4)ccc3ncc21 [NVP-BEX235]
Tumor subtype whose representative cell lines respond to the treatment [2]: M and MSL

C=CC(=O)Nc1cc2c(Nc3ccc(F)c(Cl)c3)ncnc2cc1OCCCN1CCOCC1 [canertinib]
Sensitivity of tumors of the IM class to the compound [3]: especially sensitive

CS(=O)(=O)CCNCc1ccc(-c2ccc3ncnc(Nc4ccc(OCc5cccc(F)c5)c(Cl)c4)c3c2)o1 [lapatinib]
Sensitivity of tumors of the IM class to the compound [3]: especially sensitive

CC1(S(=O)(=O)[O-])CC(=O)c2ccccc2C1=O.[Na+] (centres unmarked) [menadione-bisulfite]
IM Corr test ([4]; correlation of PRISM compound sensitivity with IM subtype correlation): 0.1925
M Corr test ([4]; correlation of PRISM compound sensitivity with M subtype correlation): −0.2026
MSL Corr test ([4]; correlation of PRISM compound sensitivity with MSL subtype correlation): −0.1086
DTIO Corr test ([5]; correlation of PRISM compound sensitivity with DTIO, test cell set): 0.1362
DTIO Corr train ([5]; correlation of PRISM compound sensitivity with DTIO, training cell set): 0.003549
DTIO Corr test ([5]; test set): 0.1362
DTIO Corr train ([5]; training set): 0.003549
compound gene test corr (cancer cell lines; gene CHL1): −0.2459
compound gene train corr (cancer cell lines; gene CHL1): −0.1641
compound gene test corr (cancer cell lines; gene COL19A1): −0.2615
compound gene train corr (cancer cell lines; gene COL19A1): −0.2071
compound gene test corr (cancer cell lines; gene DSTYK): −0.2853
compound gene train corr (cancer cell lines; gene DSTYK): −0.1942
compound gene test corr (cancer cell lines; gene FCGR2A): −0.2554
compound gene train corr (cancer cell lines; gene FCGR2A): −0.1722
compound gene test corr (cancer cell lines; gene FCRLA): −0.2647
compound gene train corr (cancer cell lines; gene FCRLA): −0.2401
compound gene test corr (cancer cell lines; gene GHR): −0.2974
compound gene train corr (cancer cell lines; gene GHR): −0.1701
compound gene test corr (cancer cell lines; gene LUM): −0.3259
compound gene train corr (cancer cell lines; gene LUM): −0.1958
compound gene test corr (cancer cell lines; gene LZTS1): −0.3133
compound gene train corr (cancer cell lines; gene LZTS1): −0.1907
compound gene test corr (cancer cell lines; gene NCKAP5L): −0.3161
compound gene train corr (cancer cell lines; gene NCKAP5L): −0.1648
compound gene test corr (cancer cell lines; gene P2RX7): −0.2585
compound gene train corr (cancer cell lines; gene P2RX7): −0.2054
compound gene test corr (cancer cell lines; gene PLEKHO1): −0.2511
compound gene train corr (cancer cell lines; gene PLEKHO1): −0.1601
compound gene test corr (cancer cell lines; gene PLEKHO2): −0.3003
compound gene train corr (cancer cell lines; gene PLEKHO2): −0.2127
compound gene test corr (cancer cell lines; gene PLP1): −0.2422
compound gene train corr (cancer cell lines; gene PLP1): −0.2332
compound gene test corr (cancer cell lines; gene PLPP7): −0.2843
compound gene train corr (cancer cell lines; gene PLPP7): −0.1831
compound gene test corr (cancer cell lines; gene QKI): −0.2736
compound gene train corr (cancer cell lines; gene QKI): −0.2164
compound gene test corr (cancer cell lines; gene SYNM): −0.2591
compound gene train corr (cancer cell lines; gene SYNM): −0.1742
compound gene test corr (cancer cell lines; gene TAMALIN): −0.254
compound gene train corr (cancer cell lines; gene TAMALIN): −0.1641
compound gene test corr (cancer cell lines; gene WWTR1): −0.2508
compound gene train corr (cancer cell lines; gene WWTR1): −0.1794
compound gene test corr (cancer cell lines; gene ZCCHC24): −0.3161
compound gene train corr (cancer cell lines; gene ZCCHC24): −0.1708
